{"source": "patent US20090162413A1", "about": "(priority 1998, published 2009)", "key": {"[1]": {"assay": "release of zotarolimus from 15 mm BiodivYsio drug delivery stents (Example 5)", "type": "physicochemical", "details": "15 mm BiodivYsio stents", "method": "To load the stents with drug, a solution of zotarolimus in ethanol at a concentration of 50 mg/ml was prepared and dispensed into twelve vials. Twelve individual polymer-coated stents were placed on fixtures designed to hold the stent in a vertical position and the stents were immersed vertically in the drug solution for five minutes. The stents and fixtures were removed from the vials and excess drug solution was blotted away by contacting the stents with an absorbent material. The stents were then allowed to dry in air for 30 minutes in an inverted vertical position.\nThe stents were removed from the fixtures, and each stent was placed into 50/50 acetonitrile/phosphate buffer (pH 5.1, 2.0 ml) and sonicated for one hour. The stents were removed from the solution and solutions were assayed for concentration of drug, which allowed calculation of the amount of drug originally on the stents. This method was independently shown to remove at least 95% of the drug from the stent coating. On average, the stents included 120±9 micrograms of drug.\nThe drug-loaded stents were placed on the fixtures and placed into 0.01 M phosphate buffer (pH=6.0, 1.9 ml) in individual vials. These samples were placed onto a Eberbach shaker set at low speed to provide back-and-forth agitation. To avoid approaching drug saturation in the buffer, the stents were transferred periodically to fresh buffer vials at the following points: 15, 30, 45, 60, 120, 135, 150, 165, 180, 240, 390 minutes. The dissolution buffer vials were assayed by HPLC for the drug concentration at the end of the drug release period studied. The data, represented as % cumulative release of the drug as a function of time, is shown in tabular form below (Table 7): […]"}, "[2]": {"tested_on": "human coronary artery endothelial cells (hCaEC)", "assay": "3H-thymidine uptake proliferation assay, hCaEC", "type": "cell-based", "details": "Homo sapiens, Endothelial cell; read-out: hCaEC IC50 Mean ± SEM", "method": "Experiments were performed to investigate interactions between zotarolimus (ABT-578) and paclitaxel when administered in combination. The effects of paclitaxel and zotarolimus on the anti-proliferative activity of human coronary artery smooth muscle ([…]) and endothelial […] determined using an in vitro proliferation assay. The proliferation and migration of vascular smooth muscle cells into the vascular neointima is a characteristic pathologic response seen in restenotic lesions (Lafont and Libby, 1998). As a result, in vitro assays which specifically measure the anti-proliferative activity of candidate anti-restenotic compounds on human coronary artery smooth muscle and endothelial cells predict potential anti-restenotic activity in vivo. To determine if paclitaxel attenuated or augmented the activity of zotarolimus the effect of paclitaxel and zotarolimus alone and in combination on growth-factor induced proliferation was determined. Data were analyzed for additivity using an isobologram approach and a combination index analysis. An isobologram is a Cartesian plot of pairs of doses that, in combination, yield a specified level of effect. It is a convenient way of graphically displaying results of drug-combination and similar studies, because paired values of experimental points that fall below or above the line connecting the axial points indicate synergistic and non-synergistic interactions, respectively. Cell proliferation was monitored by following incorporation of ^3H-thymidine into newly synthesized DNA of cells stimulated by serum and growth factors. Exponentially growing […] were seeded into 96-well flat bottom tissue culture plates at 5,000 cells/well (10,000 cells/well for […]). The cells were allowed to attach overnight. […] PerkinElmer; Wellesley; MA) was added to each filter well and the plates were counted using a TopCount microplate scintillation counter (PerkinElmer). […] The concentration eliciting a specific anti-proliferative effect was determined using a four-parameter equation (equation 1): […]"}}}
{"smiles": "CO[C@H]1C[C@@H]2CC[C@@H](C)[C@@](O)(O2)C(=O)C(=O)N2CCCC[C@H]2C(=O)O[C@H]([C@H](C)C[C@@H]2CC[C@H](n3cnnn3)[C@H](OC)C2)CC(=O)[C@H](C)/C=C(\\C)[C@@H](O)[C@@H](OC)C(=O)[C@H](C)C[C@H](C)/C=C/C=C/C=C/1C", "note": "[zotarolimus]", "values": [{"measurement": "% Cumulative Release of Drug", "setting": "[1]; 0.01 M phosphate buffer pH 6.0, 15 min", "value": 0.3, "unit": "%"}, {"measurement": "% Cumulative Release of Drug", "setting": "[1]; 0.01 M phosphate buffer pH 6.0, 30 min", "value": 1.1, "unit": "%"}, {"measurement": "% Cumulative Release of Drug", "setting": "[1]; 0.01 M phosphate buffer pH 6.0, 45 min", "value": 2.1, "unit": "%"}, {"measurement": "% Cumulative Release of Drug", "setting": "[1]; 0.01 M phosphate buffer pH 6.0, 60 min", "value": 3.2, "unit": "%"}, {"measurement": "% Cumulative Release of Drug", "setting": "[1]; 0.01 M phosphate buffer pH 6.0, 120 min", "value": 4.3, "unit": "%"}, {"measurement": "% Cumulative Release of Drug", "setting": "[1]; 0.01 M phosphate buffer pH 6.0, 135 min", "value": 5.9, "unit": "%"}, {"measurement": "% Cumulative Release of Drug", "setting": "[1]; 0.01 M phosphate buffer pH 6.0, 150 min", "value": 6.3, "unit": "%"}, {"measurement": "% Cumulative Release of Drug", "setting": "[1]; 0.01 M phosphate buffer pH 6.0, 165 min", "value": 6.8, "unit": "%"}, {"measurement": "% Cumulative Release of Drug", "setting": "[1]; 0.01 M phosphate buffer pH 6.0, 180 min", "value": 7.4, "unit": "%"}, {"measurement": "% Cumulative Release of Drug", "setting": "[1]; 0.01 M phosphate buffer pH 6.0, 240 min", "value": 10.8, "unit": "%"}, {"measurement": "% Cumulative Release of Drug", "setting": "[1]; 0.01 M phosphate buffer pH 6.0, 390 min", "value": 13.2, "unit": "%"}, {"measurement": "IC50", "setting": "[2]", "value": "3.6 ± 0.2", "unit": "nM"}]}
